In patent US20250136617A1 (The Regents of the University of Colorado, A Body Corporate, priority 2022, published 2025):
Entries after “also recorded” stand apart in the source; their conditions may differ. Read-outs that look alike come from different tables or passages of the source.

Key:
CXCR4 = CXCR4 (Homo sapiens, UniProt P61073); assay: Tag-Lite CXCR4 binding assay (displacement of fluorescent SDF-1α)
Description: Binding activity was measured using the Cisbio Tag-Lite Chemokine CXCR4 system (CisBio, Bedford, MA). […] Following three-hour incubation, HTRF measurements were taken using the BMG LABTECH CLARIOstar Plus (BMG LABTECH Inc., Cary, NC) with emission signals set to the Cisbio Tag-Lite Binding Assay supplier guidelines. HTRF ratio calculations completed according to supplier guidelines.

miR-15b = assay: qPCR of miR-15b expression in human dermal fibroblasts; type: cell-based; conditions: 24 hours, 0.1, 1 and 10 uM
Description: An additional secondary screen was performed to further validate activity of UCUF-728 as a selective CXCR4 receptor modulator. Human diabetic and non-diabetic fibroblasts were cultured with increasing concentrations of the compound. The cells were incubated for 24 hours and then total cellular RNA was isolated to examine the ability of the compound to correct the abnormal expression of miR15b, and miR29a. It has been shown that human diabetic skin has increased miR-15b expression at baseline compared to non-diabetic skin (Xu et al. “The role of microRNA-15b in the impaired angiogenesis in diabetic wounds.” Wound Repair Regen 2014; 22(5):671-7).
Diabetic and non-diabetic fibroblasts were cultured with increasing concentrations of a UCUF-965 compound. The cells were incubated for 24 hours and then total cellular RNA was isolated to examine the ability of the compound to correct the abnormal expression of miR15b, and miR29a. Angiogenesis is regulated by hypoxia and the production of growth factors such as Hypoxia-inducible Factor 1-alpha (HIF-1a) and Vascular Endothelial Growth Factor (VEGF). […] MicroRNA-15b (miR-15b) has been described as a key negative modulator of angiogenesis. Under hypoxia, miR-15b is repressed, resulting in an increased level of VEGF. Over-expression of miR-15b also markedly attenuates hypoxia induced vessel tube formation and cell migration. […]

[1] = tested on: CEM-CCRF human lymphoblast cells; assay: Transwell migration assay in CEM-CCRF lymphoblasts; type: cell-based
Summary of the method: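 CEM-CCRF cells at 5.0×10^5 cells/mL in RPMI 1640, preincubated 1 h at 37 °C, 5% CO2, then allowed to migrate in a 96-well transwell system for 3 h at 37 °C. Migrated cells in the receiver tray quantified by ATPLite luminescence.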

Chain of CXCR4 (P61073 whole entry): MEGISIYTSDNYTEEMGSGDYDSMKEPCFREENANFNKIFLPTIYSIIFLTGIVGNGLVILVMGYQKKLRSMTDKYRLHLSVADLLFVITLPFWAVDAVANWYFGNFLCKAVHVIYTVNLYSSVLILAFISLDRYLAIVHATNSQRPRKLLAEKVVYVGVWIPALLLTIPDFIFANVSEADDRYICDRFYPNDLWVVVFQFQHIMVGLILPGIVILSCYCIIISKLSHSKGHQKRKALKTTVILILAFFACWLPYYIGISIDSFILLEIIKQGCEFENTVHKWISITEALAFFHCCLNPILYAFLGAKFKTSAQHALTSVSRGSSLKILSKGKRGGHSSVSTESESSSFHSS

| SMILES | displacement of SDF-1α binding (CXCR4; listed as UCUF-728) | miR-15b expression (miR-15b; listed as UCUF-728) | migration activity (words) ([1]; listed as UCUF-728) | displacement of SDF-1α binding (CXCR4; listed as UCUF-965) | miR-15b expression (miR-15b; listed as UCUF-965) | fold lower potency in migration vs β-arrestin recruitment assay [1] [fold] | migration activity (words) [1] | EC50 ([1]; Homo sapiens, read-out: Migration log EC50, log value, n=3 (converted)) [nM] | Migration CEM Emax (%) ([1]; listed as UCUF-965) | EC50 ([1]; read-out: Migration CEM EC50, listed as UCUF-965) [nM] |
| --- | --- | --- | --- | --- | --- | --- | --- | --- | --- | --- |
| COc1ccc(OC)c(NS(=O)(=O)c2ccc(-c3cnc(C4CC4)o3)cc2)c1 [Oxazole Entry 19, 4-(2-Cyclopropyloxazol-5-yl)-N-(2,5-dimethoxyphenyl)benzenesulfonamide] | did not displace SDF-1α binding; also recorded: did not displace SDF-1a saturation binding | decreased expression of miR-15b; also recorded: potent suppression of miR-15b expression | induced migration with similar EC50 and Emax as the B-arrestin recruitment activity; also recorded: SDF-1α-mediated response was potentiated; also recorded: dose-dependent partial activation of CEM-CCRF cell migration |  |  |  |  |  |  |  |
| CCOc1ccccc1-c1nnc2n1N=C(c1ccc(N3CCCC3)cc1)CS2 [Thiadiazine Entry 23, 3-(2-ethoxyphenyl)-6-(4-(pyrrolidin-1-yl)phenyl)-7H-[1,2,4]triazolo[3,4-b][1,3,4]thiadiazine] |  |  |  | did not displace fluorescently labelled SDF-1α binding; also recorded: did not displace SDF-1α saturation binding; also recorded: did not competitively displace | decreased expression of miR-15b | 10 | partial activator of CXCR4-mediated cell migration | 398 | 31 | 400 |
